From ChEMBL document CHEMBL6087478, “Chain Length Does Matter: Development of High-Potency QS-21-Based Vaccine Adjuvants” (J Med Chem, 2025)
Activity calls are given as the source filed them. The calls are words filed in the database; no cut-off is given here.

Columns and labels:
Mus musculus [1] = test: Adjuvant activity in OVA-immunized female C57BL/6 mouse assessed as induction of antigen-specific Th2 immune responses by measuring increase in anti-OVA specific IgG2b in serum at 50 ug, IM co-administered with OVA antigen on day 0,7 and 14 and measured on day 21 by ELISA method; type: functional, organism-based; details: dose 50.0 µg, time 21.0 day
Mus musculus [2] = test: Adjuvant activity in OVA-immunized female C57BL/6 mouse assessed as increase in IgG2b antibody titer at low dose administered as IM co-administered with OVA antigen on day 0,7 and 14 and measured on day 14,28,42 by ELISA method; type: functional, organism-based; details: time 42.0 day
[3] = Toxicity in C57BL/6 mouse assessed as effect on body weight change at 50 ug, IM in presence of OVA-antigen measured upto 7 days; details: in vivo, 168 h, dose 50 µg, time < 7 day
Mus musculus [4] = test: Adjuvant activity in OVA-immunized female C57BL/6 mouse assessed as increase IgG2b antibody titer at 20 ug, sc co-administered with OVA antigen on day 0,7 and 14 and measured on day 14,28,42 by ELISA method; type: functional, organism-based; details: dose 20.0 µg, time 42.0 day
Mus musculus [5] = test: Adjuvant activity in OVA-immunized female C57BL/6 mouse assessed as increase in serum IgG2b at low dose administered as IM dose co-administered with OVA antigen on day 0,7 and 14 and measured on day 14,28 and 42 by ELISA method; type: functional, organism-based; details: time 42.0 day
Mus musculus [6] = test: Adjuvant activity in OVA-immunized female C57BL/6 mouse assessed as increase in serum IgG anti-OVA antibody response at 50 ug, IM co-administered with OVA antigen on day 0,7 and 14 and measured on day 21 by ELISA method; type: functional, organism-based; details: dose 50.0 µg, time 21.0 day
Mus musculus [7] = test: Potency index ratio of QS21 to test compound for adjuvant activity in KLH-immunized female C57BL/6 mouse assessed as increase in serum IgG anti-KLH antibody titer at 50 ug, IM co-administered with KLH-antigen on day 0,7 and 14 and measured on day 14,28 and 42 by ELISA method; type: functional; details: dose 50 µg, time 42 day
Mus musculus [8] = test: Adjuvant activity in OVA-immunized female C57BL/6 mouse assessed as induction of antigen-specific Th1 immune responses by measuring increase in anti-OVA specific IgG2b in serum at 50 ug, IM co-administered with OVA antigen on day 0,7 and 14 and measured on day 21 by ELISA method; type: functional, organism-based; details: dose 50.0 µg, time 21.0 day
[9] = Toxicity in C57BL/6 mouse assessed as effect on body weight change at 20 ug, sc in presence of OVA-antigen measured upto 7 days; type: organism-based; details: in vivo, 168 h, dose 20 µg, time < 7 day
Mus musculus [10] = test: Adjuvant activity in OVA-immunized female C57BL/6 mouse assessed as induction of antigen-specific Th2 immune responses by measuring increase in anti-OVA specific IgG1 in serum at 50 ug, IM co-administered with OVA antigen on day 0,7 and 14 and measured on day 21 by ELISA method; type: functional, organism-based; details: dose 50.0 µg, time 21.0 day
Mus musculus [11] = test: Adjuvant activity in OVA-immunized female C57BL/6 mouse assessed as increase IgG antibody titer at 20 ug, sc co-administered with OVA antigen on day 0,7 and 14 and measured on day 14,28,42 by ELISA method; type: functional, organism-based; details: dose 20.0 µg, time 42.0 day
Mus musculus [12] = test: Adjuvant activity in OVA-immunized female C57BL/6 mouse assessed as increase in serum IgG1 at low dose administered as IM dose co-administered with OVA antigen on day 0,7 and 14 and measured on day 14,28 and 42 by ELISA method; type: functional, organism-based; details: time 42.0 day
Mus musculus [13] = test: Adjuvant activity in OVA-immunized female C57BL/6 mouse assessed as induction of antigen-specific Th1 immune responses by measuring increase in anti-OVA specific IgG1 in serum at 50 ug, IM co-administered with OVA antigen on day 0,7 and 14 and measured on day 21 by ELISA method; type: functional, organism-based; details: dose 50.0 µg, time 21.0 day
Mus musculus [14] = test: Adjuvant activity in OVA-immunized female C57BL/6 mouse assessed as increase in serum IgG anti-OVA antibody response at 5 ug, IM co-administered with OVA antigen on day 0,7 and 14 and measured on day 14,28 and 42 by ELISA method; type: functional, organism-based; details: dose 5.0 µg, time 42.0 day
[15] = Toxicity in C57BL/6 mouse assessed as effect on body weight change at 50 ug, IM in presence of KLH measured upto 7 days; details: in vivo, 168 h, dose 50 µg, time < 7 day
Mus musculus [16] = test: Adjuvant activity in OVA-immunized female C57BL/6 mouse assessed as increase in IgG antibody titer at low dose administered as IM co-administered with OVA antigen on day 0,7 and 14 and measured on day 14,28,42 by ELISA method; type: functional, organism-based; details: time 42.0 day
Mus musculus [17] = test: Adjuvant activity in OVA-immunized female C57BL/6 mouse assessed as increase IgG2b antibody titer at 50 ug, sc co-administered with OVA antigen on day 0,7 and 14 and measured on day 14,28,42 by ELISA method; type: functional, organism-based; details: dose 50.0 µg, time 42.0 day
[18] = Toxicity in C57BL/6 mouse assessed as effect on body weight change at 50 ug, sc in presence of OVA-antigen measured upto 7 days; type: organism-based; details: in vivo, 168 h, dose 50 µg, time < 7 day
Mus musculus [19] = test: Adjuvant activity in OVA-immunized female C57BL/6 mouse assessed as increase IgG antibody titer at 50 ug, sc co-administered with OVA antigen on day 0,7 and 14 and measured on day 14,28,42 by ELISA method; type: functional, organism-based; details: dose 50.0 µg, time 42.0 day
Mus musculus [20] = test: Adjuvant activity in OVA-immunized female C57BL/6 mouse assessed as increase in IgG antibody titer at 50 ug, IM co-administered with OVA antigen on day 0,7 and 14 and measured on day 14,28,42 by ELISA method; type: functional, organism-based; details: dose 50.0 µg, time 42.0 day
Mus musculus [21] = test: Adjuvant activity in KLH-immunized female C57BL/6 mouse assessed as increase in serum IgG anti-KLH antibody titer at 50 ug, IM co-administered with KLH-antigen on day 0,7 and 14 and measured on day 14,28 and 42 by ELISA method; type: functional, organism-based; details: dose 50.0 µg, time 42.0 day
Mus musculus [22] = test: Adjuvant activity in OVA-immunized female C57BL/6 mouse assessed as increase in IgG2b antibody titer at 50 ug, IM co-administered with OVA antigen on day 0,7 and 14 and measured on day 14,28,42 by ELISA method; type: functional, organism-based; details: dose 50.0 µg, time 42.0 day

Row | Structure (SMILES) | Activity (Mus musculus [1]) | Activity [3] | Activity (Mus musculus [4]) | Activity (Mus musculus [6]) | Activity (Mus musculus [8]) | Activity (Mus musculus [10]) | Activity (Mus musculus [11]) | Activity (Mus musculus [13]) | Activity [15] | Activity (Mus musculus [17]) | Activity [18] | Activity (Mus musculus [19]) | other results
1 | C[C@@H]1O[C@@H](O[C@H]2[C@H](OC(=O)[C@]34CCC(C)(C)C[C@H]3C3=CC[C@@H]5[C@@]6(C)CC[C@H](O)[C@@](C)(C=O)[C@@H]6CC[C@@]5(C)[C@]3(C)CC4)O[C@H](CO)[C@H](NC(=O)CCCCCCCCCCCCCCC(=O)O)[C@@H]2O)[C@H](O)[C@H](O)[C@H]1O[C@@H]1OC[C@@H](O)[C@H](O)[C@H]1O | Active | Non-toxic | Active | Active | Active | Active | Active | Active | Non-toxic |  |  |  | Activity (Mus musculus [2]): Active; Activity (Mus musculus [5]): Active; fold change (FC) (Mus musculus [7]): 10; Activity [9]: Non-toxic; Activity (Mus musculus [12]): Active; Activity (Mus musculus [14]): Active; Activity (Mus musculus [16]): Active
2 | CC1(C)CC[C@]2(C(=O)O[C@@H]3O[C@H](CO)[C@@H](O)[C@H](O[C@@H]4O[C@H](CO)[C@@H](O)[C@H](O[C@@H]5O[C@H](CO)[C@@H](O)[C@H](O[C@@H]6O[C@H](CO)[C@@H](O)[C@H](O[C@@H]7O[C@H](CO)[C@@H](O)[C@H](O)[C@H]7O)[C@H]6O)[C@H]5O)[C@H]4O)[C@H]3O)[C@H](O)C[C@]3(C)C(=CC[C@@H]4[C@@]5(C)CC[C@H](O[C@@H]6O[C@H](CO)[C@@H](O)[C@H](O[C@@H]7O[C@H](CO)[C@@H](O)[C@H](O[C@@H]8O[C@H](CO)[C@@H](O)[C@H](O)[C@H]8O)[C@H]7O)[C@H]6O)[C@@](C)(C=O)[C@@H]5CC[C@]43C)[C@@H]2C1 |  |  | Active |  |  |  | Active |  |  |  |  |  | 
3 | C[C@@H]1O[C@@H](O[C@H]2[C@H](OC(=O)[C@]34CCC(C)(C)C[C@H]3C3=CC[C@@H]5[C@@]6(C)CC[C@H](O)[C@@](C)(C=O)[C@@H]6CC[C@@]5(C)[C@]3(C)CC4)O[C@H](CO)[C@H](NC(=O)CCCCCCCCCCC(=O)O)[C@@H]2O)[C@H](O)[C@H](O)[C@H]1O[C@@H]1OC[C@@H](O)[C@H](O)[C@H]1O |  |  |  |  |  |  |  |  |  | Active | Non-toxic | Active | 
4 | C[C@@H]1O[C@@H](O[C@H]2[C@H](OC(=O)[C@]34CCC(C)(C)C[C@H]3C3=CC[C@@H]5[C@@]6(C)CC[C@H](O)[C@@](C)(C=O)[C@@H]6CC[C@@]5(C)[C@]3(C)CC4)O[C@H](CO)[C@H](NC(=O)CCCCCCCCCCCCC(=O)O)[C@@H]2O)[C@H](O)[C@H](O)[C@H]1O[C@@H]1OC[C@@H](O)[C@H](O)[C@H]1O | Active | Non-toxic |  | Active | Active | Active |  | Active | Non-toxic | Active | Non-toxic | Active | Activity (Mus musculus [20]): Active; Activity (Mus musculus [21]): Active; Activity (Mus musculus [22]): Active
